The target in the experiment is Beta-secretase 1 (Homo sapiens, UniProt P56817). The experiment can be described thus: Activity Assay: The activity assay for the compound of each example was carried out in this experimental example, and the detailed test method was as follows:1. The test compound was formulated as 10 μmol/L solution in dimethylsulfoxide;2. Starting from 10 μmol/L, by 3-fold serial dilution, the inhibitory activity of each compound against the enzyme was tested in singlet state at 10 doses;3. IC50 values of test compounds were finally obtained.
Beta-secretase 1, sequence (P56817 whole entry): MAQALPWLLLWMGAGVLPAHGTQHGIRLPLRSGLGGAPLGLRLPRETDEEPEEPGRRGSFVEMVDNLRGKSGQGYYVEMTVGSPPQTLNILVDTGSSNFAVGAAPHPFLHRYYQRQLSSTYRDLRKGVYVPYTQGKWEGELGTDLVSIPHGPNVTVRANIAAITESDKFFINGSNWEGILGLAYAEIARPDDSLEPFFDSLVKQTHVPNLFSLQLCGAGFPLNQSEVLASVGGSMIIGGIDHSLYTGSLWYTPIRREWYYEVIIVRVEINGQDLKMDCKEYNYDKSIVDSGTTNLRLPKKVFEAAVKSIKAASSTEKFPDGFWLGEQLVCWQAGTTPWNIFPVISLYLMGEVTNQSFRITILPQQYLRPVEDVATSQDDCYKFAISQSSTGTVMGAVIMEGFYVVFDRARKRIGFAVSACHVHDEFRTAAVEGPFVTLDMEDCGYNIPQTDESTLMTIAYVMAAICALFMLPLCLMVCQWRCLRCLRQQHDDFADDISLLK

As a reminder, the IC50 is the midpoint of a concentration-inhibition curve. `C[C@H]1C[C@@]2(F)CSC(N)=N[C@@]2(c2cccc(NC(=O)c3ccc(Cl)cn3)c2)CO1` registered an IC50 of 213 nM.

Values taken from ChEMBL document CHEMBL5728220, “[1,3]thiazin-2-amine compound, application, and pharmaceutical composition” (2021).
